Test [1] concerns the target Sodium-dependent serotonin transporter (Homo sapiens, UniProt P31645). Nature of the test: Inhibition of recombinant human 5-HT transporter expressed in HEK293 cells assessed as reduction in [3H]-5-HT reuptake. Format: cell-based.
The target of test [2] is Sodium-dependent dopamine transporter (Homo sapiens, UniProt Q01959). Nature of the test: Inhibition of recombinant human DA transporter assessed as reduction in [3H]-DA reuptake.
Test [3] in a line: Inhibition of NAT in Wistar rat synaptosomes assessed as [3H]-NA reuptake by liquid scintillation counting. The class given is subcellular.
The target in test [4] is Sodium-dependent dopamine transporter (Rattus norvegicus, UniProt P23977). Nature of the test: Inhibition of DAT in Wistar rat synaptosomes assessed as [3H]-DA reuptake by liquid scintillation counting. The class given is subcellular.
Test [5] concerns the target Sodium-dependent serotonin transporter (Rattus norvegicus, UniProt P31652). Nature of the test: Inhibition of 5-HT in Wistar rat synaptosomes assessed as [3H]-5-HT reuptake by liquid scintillation counting. Format: subcellular.
Test [6] addresses Voltage-gated inwardly rectifying potassium channel KCNH2 (Homo sapiens, UniProt Q12809). Nature of the test: Inhibition of human ERG channel tail current.
Test [7] deals with Sodium-dependent noradrenaline transporter (Homo sapiens, UniProt P23975). Nature of the test: Inhibition of recombinant human norepinephrine transporter assessed as reduction in [3H]-NA reuptake.
A further test relates to UT7. Nature of the test: Induction of cell proliferation in human UT7 cells at 10 uM after 42 hrs by thymidine incorporation assay. Format: functional. On the technique in general: Dividing cells build labelled thymidine or BrdU into new DNA.
Test [8] in a line: Inhibition of recombinant human sPLA2 after 30 mins microtiter plate assay.
The nature of test [9]: Inhibition of human sPLA2 expressed in Escherichia coli assessed as release of [14C]oleate.

Molecules are shown by their SMILES.

Sequence of Sodium-dependent dopamine transporter (Rattus norvegicus, UniProt P23977) (P23977 whole entry): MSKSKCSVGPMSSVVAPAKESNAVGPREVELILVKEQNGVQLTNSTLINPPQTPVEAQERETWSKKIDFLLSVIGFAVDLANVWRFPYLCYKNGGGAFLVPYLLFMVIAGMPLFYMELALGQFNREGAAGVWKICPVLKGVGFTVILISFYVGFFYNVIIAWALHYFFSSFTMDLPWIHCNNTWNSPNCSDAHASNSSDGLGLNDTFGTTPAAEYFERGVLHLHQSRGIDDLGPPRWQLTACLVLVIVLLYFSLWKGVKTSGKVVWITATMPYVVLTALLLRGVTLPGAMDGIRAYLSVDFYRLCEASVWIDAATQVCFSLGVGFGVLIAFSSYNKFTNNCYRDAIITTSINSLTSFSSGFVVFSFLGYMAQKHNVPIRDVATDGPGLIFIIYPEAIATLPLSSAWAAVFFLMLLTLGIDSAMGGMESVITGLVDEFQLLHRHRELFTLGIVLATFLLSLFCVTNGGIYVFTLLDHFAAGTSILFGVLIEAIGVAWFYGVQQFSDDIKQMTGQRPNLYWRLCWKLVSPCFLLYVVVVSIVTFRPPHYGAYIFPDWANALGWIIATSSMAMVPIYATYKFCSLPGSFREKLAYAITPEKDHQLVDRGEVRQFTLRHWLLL
Sequence of Sodium-dependent dopamine transporter (Homo sapiens, UniProt Q01959) (Q01959 whole entry): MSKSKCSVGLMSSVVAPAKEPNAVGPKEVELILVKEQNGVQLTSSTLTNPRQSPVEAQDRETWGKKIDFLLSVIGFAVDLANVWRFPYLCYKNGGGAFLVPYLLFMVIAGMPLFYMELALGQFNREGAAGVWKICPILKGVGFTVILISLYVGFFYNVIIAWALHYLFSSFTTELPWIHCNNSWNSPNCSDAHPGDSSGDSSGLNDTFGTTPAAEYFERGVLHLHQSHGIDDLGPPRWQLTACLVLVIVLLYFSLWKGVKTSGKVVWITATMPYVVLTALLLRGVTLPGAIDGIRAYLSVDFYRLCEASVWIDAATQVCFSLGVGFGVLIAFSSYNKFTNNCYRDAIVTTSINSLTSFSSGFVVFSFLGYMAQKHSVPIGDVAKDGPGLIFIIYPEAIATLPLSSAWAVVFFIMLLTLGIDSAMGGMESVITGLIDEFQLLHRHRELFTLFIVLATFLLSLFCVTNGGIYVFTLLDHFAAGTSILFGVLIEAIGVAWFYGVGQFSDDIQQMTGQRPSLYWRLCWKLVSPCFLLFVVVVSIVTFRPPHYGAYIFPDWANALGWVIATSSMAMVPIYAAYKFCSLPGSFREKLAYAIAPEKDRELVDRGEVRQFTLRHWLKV
Sequence of Sodium-dependent serotonin transporter (Rattus norvegicus, UniProt P31652) (P31652 whole entry): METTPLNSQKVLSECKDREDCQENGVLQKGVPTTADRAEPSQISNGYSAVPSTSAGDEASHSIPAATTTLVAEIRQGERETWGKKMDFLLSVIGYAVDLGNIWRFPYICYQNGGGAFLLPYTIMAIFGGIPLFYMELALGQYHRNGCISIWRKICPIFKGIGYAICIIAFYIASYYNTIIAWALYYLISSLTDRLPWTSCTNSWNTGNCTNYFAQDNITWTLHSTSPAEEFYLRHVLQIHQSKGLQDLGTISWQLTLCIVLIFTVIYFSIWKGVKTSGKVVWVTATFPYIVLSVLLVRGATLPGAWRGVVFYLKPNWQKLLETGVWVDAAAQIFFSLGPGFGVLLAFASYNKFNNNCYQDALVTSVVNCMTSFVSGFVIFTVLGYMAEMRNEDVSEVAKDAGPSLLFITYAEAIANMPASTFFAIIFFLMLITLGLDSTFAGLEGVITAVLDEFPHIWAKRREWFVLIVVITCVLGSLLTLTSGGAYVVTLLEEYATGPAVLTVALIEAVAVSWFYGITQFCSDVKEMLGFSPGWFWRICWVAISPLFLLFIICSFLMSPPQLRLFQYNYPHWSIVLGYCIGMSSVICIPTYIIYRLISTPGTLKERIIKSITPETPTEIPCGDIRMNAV
Sequence of Sodium-dependent serotonin transporter (Homo sapiens, UniProt P31645) (P31645 whole entry): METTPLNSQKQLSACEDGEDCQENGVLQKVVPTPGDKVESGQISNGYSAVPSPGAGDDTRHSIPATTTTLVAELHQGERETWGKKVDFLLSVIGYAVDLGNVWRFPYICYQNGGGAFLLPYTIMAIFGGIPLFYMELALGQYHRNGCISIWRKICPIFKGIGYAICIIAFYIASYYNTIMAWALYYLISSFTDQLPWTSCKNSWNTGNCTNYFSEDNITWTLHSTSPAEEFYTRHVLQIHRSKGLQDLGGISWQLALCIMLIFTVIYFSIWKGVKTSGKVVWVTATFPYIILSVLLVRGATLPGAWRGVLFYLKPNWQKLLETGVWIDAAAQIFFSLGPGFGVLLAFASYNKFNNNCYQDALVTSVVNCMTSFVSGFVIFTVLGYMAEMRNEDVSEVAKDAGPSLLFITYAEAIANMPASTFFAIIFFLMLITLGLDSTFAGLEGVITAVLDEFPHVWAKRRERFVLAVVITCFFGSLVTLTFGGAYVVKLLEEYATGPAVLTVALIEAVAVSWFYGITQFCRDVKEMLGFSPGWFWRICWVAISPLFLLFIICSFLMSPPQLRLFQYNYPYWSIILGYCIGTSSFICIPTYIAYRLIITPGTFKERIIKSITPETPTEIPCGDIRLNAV
Sequence of Voltage-gated inwardly rectifying potassium channel KCNH2 (Q12809 whole entry): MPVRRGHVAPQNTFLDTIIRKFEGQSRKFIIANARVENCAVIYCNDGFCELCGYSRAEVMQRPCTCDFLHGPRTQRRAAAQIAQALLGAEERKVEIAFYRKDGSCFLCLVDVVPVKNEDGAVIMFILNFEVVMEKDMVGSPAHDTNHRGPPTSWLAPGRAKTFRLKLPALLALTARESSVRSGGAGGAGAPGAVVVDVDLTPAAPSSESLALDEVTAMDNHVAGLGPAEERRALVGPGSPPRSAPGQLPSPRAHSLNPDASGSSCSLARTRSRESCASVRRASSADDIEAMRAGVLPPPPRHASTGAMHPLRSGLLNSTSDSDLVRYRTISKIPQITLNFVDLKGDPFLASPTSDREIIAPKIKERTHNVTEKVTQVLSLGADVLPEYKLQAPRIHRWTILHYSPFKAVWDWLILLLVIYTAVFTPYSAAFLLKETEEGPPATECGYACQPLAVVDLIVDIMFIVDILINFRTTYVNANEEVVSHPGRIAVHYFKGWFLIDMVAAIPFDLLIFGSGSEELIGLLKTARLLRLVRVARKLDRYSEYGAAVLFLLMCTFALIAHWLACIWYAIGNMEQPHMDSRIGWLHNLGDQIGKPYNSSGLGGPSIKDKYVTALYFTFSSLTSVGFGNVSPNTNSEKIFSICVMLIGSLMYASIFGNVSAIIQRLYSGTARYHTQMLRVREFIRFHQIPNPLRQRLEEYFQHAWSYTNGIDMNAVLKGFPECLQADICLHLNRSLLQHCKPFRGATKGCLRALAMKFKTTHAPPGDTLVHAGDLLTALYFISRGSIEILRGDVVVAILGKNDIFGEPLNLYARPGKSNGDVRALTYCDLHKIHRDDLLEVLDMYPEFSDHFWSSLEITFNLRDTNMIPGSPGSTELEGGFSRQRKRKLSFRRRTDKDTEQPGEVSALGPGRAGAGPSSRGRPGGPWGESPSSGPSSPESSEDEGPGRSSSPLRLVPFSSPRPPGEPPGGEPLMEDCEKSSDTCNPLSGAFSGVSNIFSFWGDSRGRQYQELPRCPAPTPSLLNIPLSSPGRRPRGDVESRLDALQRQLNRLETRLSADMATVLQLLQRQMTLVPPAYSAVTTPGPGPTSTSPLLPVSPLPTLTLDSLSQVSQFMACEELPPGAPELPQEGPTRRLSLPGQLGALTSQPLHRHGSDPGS
Sequence of Sodium-dependent noradrenaline transporter (P23975 whole entry): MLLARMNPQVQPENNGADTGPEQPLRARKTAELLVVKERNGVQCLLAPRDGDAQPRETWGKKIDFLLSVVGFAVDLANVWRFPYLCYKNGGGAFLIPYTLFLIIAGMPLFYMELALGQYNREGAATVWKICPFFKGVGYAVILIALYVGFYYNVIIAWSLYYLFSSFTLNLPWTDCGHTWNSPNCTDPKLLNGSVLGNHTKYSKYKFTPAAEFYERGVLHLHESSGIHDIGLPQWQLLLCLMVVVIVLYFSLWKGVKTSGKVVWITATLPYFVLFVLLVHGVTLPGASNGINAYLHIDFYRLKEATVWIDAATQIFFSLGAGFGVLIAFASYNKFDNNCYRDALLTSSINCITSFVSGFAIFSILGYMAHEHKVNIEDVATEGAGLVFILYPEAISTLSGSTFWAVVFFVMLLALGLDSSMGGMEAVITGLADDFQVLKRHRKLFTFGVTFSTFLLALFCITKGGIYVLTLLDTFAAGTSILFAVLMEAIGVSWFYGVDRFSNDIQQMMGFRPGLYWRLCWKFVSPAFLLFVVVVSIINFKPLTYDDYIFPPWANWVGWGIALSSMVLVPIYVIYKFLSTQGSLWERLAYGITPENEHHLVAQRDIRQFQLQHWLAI

One may read the IC50 as the concentration that gives 50% inhibition. Consider `CNC[C@]1(c2ccc3ccccc3c2)CC[C@@](C)(O)CC1`, for which the IC50 in test [1] stood at 11 nM; in [2] it was 40 nM.

On to `COc1cc2ccc(OC3CC4CCC(C3)N4C)cc2oc1=O` (configuration not stated), for which the IC50 in test [3] worked out at 0.48 nM; in [4], 9.9 nM; in test [5], 10 nM.

As for `CN1C2CCC1CC(Oc1ccc3cc(-c4ccoc4)c(=O)oc3c1)C2` (configuration not stated), the IC50 in test [3] is 3.8 nM; in test [4] it was 70 nM; in [5], 2.9 nM.

`CC1=NN(c2ccc(C)c(C)c2)C(=O)/C1=N\Nc1cccc(-c2cccc(C(=O)O)c2)c1O` [ELTROMBOPAG]: 690 nM corresponded to half-maximal inhibition in [6] (IC50).

With `CC(C)C(C)[C@]1(c2ccc3ccccc3c2)CC[C@](C)(O)CC1` (some centres not stated), the IC50 in test [1] is 18 nM; in [7], 33 nM; in [2] it was 21 nM.

Take `COC(=O)[C@H](CCCCNC(=O)CN(CC(=O)CNc1ccc(OC)cc1)C(=O)C1CCCC(C(=O)N(CC(=O)NCCCC[C@H](NC(=O)OCc2ccccc2)C(=O)OC)CC(=O)NCc2ccc(OC)cc2)C1)NC(=O)OCc1ccccc1` (some centres not stated): the Activity in the test with UT7 is on record as 33%.

Regarding `CCc1c(C(=O)C(N)=O)c2c(OCC(=O)O)cccc2n1Cc1ccccc1` [VARESPLADIB], the IC50 in [8] was determined as 9 nM.

On to `Cc1ccc(C2CC3CCC(C2)N3C)cc1Br` (configuration not stated), for which the IC50 in test [3] turned out to be 15 nM; in [4] it was 13 nM; in test [5], 1.4 nM.

`O=C(O)CC[C@@H](CSc1ccc(Cc2ccccc2)cc1)NC(=O)CCCCCCc1ccccc1`: the IC50 in test [9] is 21 nM.

Regarding `CN1C2CCC1CC(c1ccc3ccccc3c1)C2` (configuration not stated), the concentration for half-maximal inhibition (IC50) in [3] worked out at 18 nM; in test [4], 34 nM; in test [5], 0.23 nM.

As for `CN(C)CC1(c2ccc(Cl)c(Cl)c2)CCCC(O)C1` (configuration not stated), the IC50 in test [2] turned out to be 13 nM.
